BindingDB's records for doi:10.1016/j.chembiol.2004.03.022 (Cyclacel, 2004)
pIC50: −log10 of the molar value.

Legend:
Experiment in all cases: Kinase Inhibition Assay
[1] = biological target: G1/S-specific cyclin-E1 (Homo sapiens, UniProt P24864)
Excerpt: (§1) In vitro kinase inhibition assay.

[2] = biological target: G1/S-specific cyclin-D1 (Homo sapiens, UniProt P24385)
Excerpt: as §1

[3] = biological target: Cyclin-dependent kinase 2 (Homo sapiens, UniProt P24941)
Excerpt: as §1

[4] = biological target: Cyclin-dependent kinase 4 (Homo sapiens, UniProt P11802)
Excerpt: as §1

Sequence of G1/S-specific cyclin-E1 (P24864 whole entry): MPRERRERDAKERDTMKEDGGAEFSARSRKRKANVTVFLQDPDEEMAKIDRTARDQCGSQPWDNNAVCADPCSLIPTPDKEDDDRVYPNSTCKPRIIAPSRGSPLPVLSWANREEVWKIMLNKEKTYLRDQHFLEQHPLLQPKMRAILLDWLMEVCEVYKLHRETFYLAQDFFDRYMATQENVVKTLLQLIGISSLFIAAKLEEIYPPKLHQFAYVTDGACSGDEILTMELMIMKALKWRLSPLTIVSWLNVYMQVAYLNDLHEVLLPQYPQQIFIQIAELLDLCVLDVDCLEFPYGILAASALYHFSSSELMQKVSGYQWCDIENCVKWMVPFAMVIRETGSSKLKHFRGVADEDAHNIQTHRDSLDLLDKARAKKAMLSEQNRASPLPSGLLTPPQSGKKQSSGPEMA
Sequence of G1/S-specific cyclin-D1 (P24385 whole entry): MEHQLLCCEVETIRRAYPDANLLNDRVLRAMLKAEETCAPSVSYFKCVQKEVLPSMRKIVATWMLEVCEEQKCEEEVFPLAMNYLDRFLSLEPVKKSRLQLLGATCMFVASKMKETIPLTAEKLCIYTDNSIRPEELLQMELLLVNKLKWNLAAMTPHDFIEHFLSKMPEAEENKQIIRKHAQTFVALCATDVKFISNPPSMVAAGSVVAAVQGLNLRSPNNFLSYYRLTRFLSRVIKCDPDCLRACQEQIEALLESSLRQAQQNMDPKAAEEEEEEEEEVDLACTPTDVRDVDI
Sequence of Cyclin-dependent kinase 4 (P11802 whole entry): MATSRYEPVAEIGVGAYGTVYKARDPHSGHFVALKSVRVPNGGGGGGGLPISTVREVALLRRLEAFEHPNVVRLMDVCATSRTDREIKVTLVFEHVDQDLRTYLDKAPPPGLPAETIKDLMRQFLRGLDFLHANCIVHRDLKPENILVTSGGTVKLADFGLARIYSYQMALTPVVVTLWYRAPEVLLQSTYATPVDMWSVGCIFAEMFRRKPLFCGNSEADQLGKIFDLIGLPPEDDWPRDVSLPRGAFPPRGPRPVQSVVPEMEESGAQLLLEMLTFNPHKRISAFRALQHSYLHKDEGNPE

| Compound | pIC50 [1] | pIC50 [2] | pIC50 [3] | pIC50 [4] |
| --- | --- | --- | --- | --- |
| Cc1nc(C)c(-c2ccnc(Nc3ccc(N)cc3)n2)s1 [Aminopyrimidine, 4] | 6.64 | 5.42 | – | – |
| Cc1nc(N)sc1-c1ccnc(Nc2ccc(N3CCOCC3)cc2)n1 [2-amino-4-methyl-1,3-thiazol-5-yl)-N-[4-(morpholin-4-yl)phenyl]pyrimidin-2-amine, 5] | – | 5.62 | – | – |
| Cc1nc(C)c(-c2ccnc(Nc3ccc(N4CCNCC4)cc3)n2)s1 [Aminopyrimidine, 6] | 5.96 | 6.19 | – | – |
| CNc1nc(C)c(-c2ccnc(Nc3cccc(CNC(C)=O)c3)n2)s1 [Aminopyrimidine, 3] | 6.37 | 6.05 | – | – |
| CNc1nc(C)c(-c2ccnc(Nc3ccc(N4CCNCC4)cc3)n2)s1 [Aminopyrimidine, 10] | – | 8.15 | – | – |
| COc1ccc(OC)c2c(=S)c3ccccc3[nH]c12 [NSC625987] | – | – | < 4.00 | 6.70 |
| O=C1c2ccccc2-[n+]2ccc3c([nH]c4ccccc43)c21 | – | – | < 4.30 | 6.46 |
| Cc1nc(C)c(-c2ccnc(Nc3ccc(N4CCN(CCO)CC4)cc3)n2)s1 [Aminopyrimidine, 8] | 5.66 | 6.37 | – | – |
| CCNc1nc(C)c(-c2ccnc(Nc3cccc(CN)c3)n2)s1 [Aminopyrimidine, 2] | 6.48 | 6.96 | – | – |
| CNc1nc(C)c(-c2ccnc(Nc3cccc(CN)c3)n2)s1 [Aminopyrimidine, 1] | 6.39 | 6.64 | – | – |
| Cc1nc(C)c(-c2ccnc(Nc3ccc(N4CCOCC4)cc3)n2)s1 [Aminopyrimidine, 5] | 5.70 | 5.40 | – | – |
| Cc1nc(C)c(-c2ccnc(Nc3ccc(N4CCN(C)CC4)cc3)n2)s1 [Aminopyrimidine, 7] | 5.99 | 6.80 | – | – |
